Data from patent publication US20260022142A1, “MACROCYCLIC IMMUNOMODULATORS” (Bristol-Myers Squibb Company, priority 2022, published 2026).
Numbered stars: 1 amine (or outer) side, 2 acyl side, 3 side chain; on linkers, the order of the positions; unused ones are H or OH. Bridge positions count the residues as written; N and C are the ends. Square brackets hold non-standard residues; d marks the D form. Peptide text beside a SMILES is read from it. * marks the point of attachment. ξ: configuration not given here. Bip = N[C@@H](Cc1ccc(-c2ccccc2)cc1)C(=O)O; Ala(2-furyl) = N[C@@H](Cc1ccco1)C(=O)O; Phe(3-Me) = Cc1cccc(C[C@H](N)C(=O)O)c1; NMeAEEA = CN(CCOCCOCC(=O)[*:2])[*:1]; 4Pal = N[C@@H](Cc1ccncc1)C(=O)O; Cha = N[C@@H](CC1CCCCC1)C(=O)O; NMeN = CN[C@@H](CC(N)=O)C(=O)O; dNMeN = CN[C@H](CC(N)=O)C(=O)O; Thr(3ξ) = CC(O)[C@H](N)C(=O)O; Carboxymethyl = O=C(O)C*; Orn = NCCC[C@H](N)C(=O)O; Aun = NCCCCCCCCCCC(=O)O; Dab = NCC[C@H](N)C(=O)O; AEEA = NCCOCCOCC(=O)O

target: T1, PD-1/PD-L1 interaction (PE-labeled human PD-L1-Ig binding to Jurkat cell line over-expressing human PD-1) (Homo sapiens, UniProt Q15116); assay: Jurkat-PD-1 Cell Binding High-Content Screening Assay (CBA); format: cell-based; details: Jurkat cell line over-expressing human PD-1; PE-labeled PD-L1-Ig 20 nM final; read-out: Jurkat hPD1-PDL1 IC50
T1 construct: expressed in transfected cells; host or cells: Jurkat
Procedure, shortened: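 Binding of fluorescent PD-L1-Ig (phycoerythrin on Ig tag, 20 nM final, 1 h) measured by high-content imaging of fixed, Hoechst-counterstained Jurkat-hPD-1 cells. Compound added 2 h at 37° C beforehand, in DMEM with 10% fetal calf serum.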

T1 sequence (Q15116 25-288): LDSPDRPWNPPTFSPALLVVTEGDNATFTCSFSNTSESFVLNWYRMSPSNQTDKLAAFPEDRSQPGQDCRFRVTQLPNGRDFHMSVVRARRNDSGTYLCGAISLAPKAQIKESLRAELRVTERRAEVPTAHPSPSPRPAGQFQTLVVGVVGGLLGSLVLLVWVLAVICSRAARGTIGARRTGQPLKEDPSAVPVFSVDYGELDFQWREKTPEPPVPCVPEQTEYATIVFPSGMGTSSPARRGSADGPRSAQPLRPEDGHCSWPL

Row | IC50 [nM] | SMILES
1 | 7.4 | CC(=O)NCCCC[C@@H]1NC(=O)[C@H](C(C)C)NC(=O)[C@H](CC2CCCCC2)NC(=O)[C@H](CCN)NC(=O)[C@@H](CC(C)C)NC(=O)[C@H](CCCN)NC(=O)[C@H](C(C)C)NC(=O)[C@H](Cc2ccc(-c3ccccc3)cc2)NC(=O)[C@H](C(C)C)NC(=O)[C@H](Cc2c[nH]c3ccccc23)NC(=O)[C@H](CC(=O)O)NC(=O)[C@H](Cc2ccc(OCC(=O)O)cc2)NC(=O)[C@H](CCCNC(=N)N)NC(=O)CSC[C@@H](C(=O)NCCOCCOCC(=O)NCCCCCCCCCCC(=O)O)NC1=O [Compound 3341] ({CH2CO}-RY(Carboxymethyl)DWV[Bip]V[Orn][dL][Dab][Cha]VK(Ac)C[AEEA][Aun]-OH; thioether N-14)
2 | 3.7 | CC(C)C[C@H]1NC(=O)[C@H](CCCN)NC(=O)[C@H](C(C)C)NC(=O)[C@H](Cc2ccc(-c3ccccc3)cc2)NC(=O)[C@H](C(C)C)NC(=O)[C@H](Cc2c[nH]c3ccccc23)NC(=O)[C@H](CC(=O)O)NC(=O)[C@H](Cc2ccc(OCC(=O)O)cc2)NC(=O)[C@H](CCCNC(=N)N)NC(=O)CSC[C@@H](C(=O)NCCOCCOCC(=O)NCCCCCCCCCCC(=O)O)NC(=O)[C@H](CCCN)NC(=O)[C@H](C(C)C)NC(=O)[C@H](CC2CCCCC2)NC(=O)[C@H](CCN)NC1=O [Compound 3347] ({CH2CO}-RY(Carboxymethyl)DWV[Bip]V[Orn][dL][Dab][Cha]V[Orn]C[AEEA][Aun]-OH; thioether N-14)
3 | 6.3 | Cc1cccc(C[C@@H]2NC(=O)[C@H](CC(=O)O)NC(=O)[C@H](Cc3ccc(OCC(=O)O)cc3)NC(=O)[C@H](C(C)O)NC(=O)CSC[C@@H](C(=O)NCCOCCOCC(=O)NCCCCCCCCCCC(=O)O)NC(=O)[C@H](CCCN)NC(=O)[C@H](C(C)C)NC(=O)[C@H](CC3CCCCC3)NC(=O)[C@H](CCN)NC(=O)[C@@H](CC(C)C)NC(=O)[C@H](CCN)NC(=O)[C@H](C(C)C)NC(=O)[C@H](Cc3ccc(-c4ccccc4)cc3)NC(=O)[C@H](C(C)C)NC2=O)c1 (stereo partly drawn) [Compound 3350] ({CH2CO}-[Thr(3ξ)]Y(Carboxymethyl)D[Phe(3-Me)]V[Bip]V[Dab][dL][Dab][Cha]V[Orn]C[AEEA][Aun]-OH; thioether N-14)
4 | 4.2 | Cc1cccc(C[C@@H]2NC(=O)[C@H](CC(=O)O)NC(=O)[C@H](Cc3ccc(OCC(=O)O)cc3)NC(=O)[C@H](CCCNC(=N)N)NC(=O)CSC[C@@H](C(=O)NCCOCCOCC(=O)NCCCCCCCCCCC(=O)O)NC(=O)[C@H](CCCN)NC(=O)[C@H](C(C)C)NC(=O)[C@H](CC3CCCCC3)NC(=O)[C@H](CCN)NC(=O)[C@@H](CC(C)C)NC(=O)[C@H](CCN)NC(=O)[C@H](C(C)C)NC(=O)[C@H](Cc3ccc(-c4ccccc4)cc3)NC(=O)[C@H](C(C)C)NC2=O)c1 [Compound 3351] ({CH2CO}-RY(Carboxymethyl)D[Phe(3-Me)]V[Bip]V[Dab][dL][Dab][Cha]V[Orn]C[AEEA][Aun]-OH; thioether N-14)
5 | 140 | Cc1cccc(C[C@@H]2NC(=O)[C@H](CC(=O)O)NC(=O)[C@H](Cc3ccc(OCC(=O)O)cc3)NC(=O)[C@H](C(C)O)NC(=O)CSC[C@@H](C(=O)N(C)CCOCCOCC(=O)NCCCCCCCCCCC(=O)O)NC(=O)[C@H](CCCN)NC(=O)[C@H](C(C)C)NC(=O)[C@H](CC3CCCCC3)NC(=O)[C@H](CCN)NC(=O)[C@@H](CC(C)C)NC(=O)[C@H](CCN)NC(=O)[C@H](C(C)C)NC(=O)[C@H](Cc3ccc(-c4ccccc4)cc3)NC(=O)[C@H](C(C)C)NC2=O)c1 (stereo partly drawn) [Compound 3353] ({CH2CO}-[Thr(3ξ)]Y(Carboxymethyl)D[Phe(3-Me)]V[Bip]V[Dab][dL][Dab][Cha]V[Orn]C[NMeAEEA][Aun]-OH; thioether N-14)

Continued, compound first:

Row | SMILES | IC50 [nM]
6 | Cc1cccc(C[C@@H]2NC(=O)[C@H](CC(=O)O)NC(=O)[C@H](Cc3ccc(OCC(=O)O)cc3)NC(=O)[C@H](C(C)O)NC(=O)CSC[C@@H](C(=O)N(C)[C@@H](CC(N)=O)C(=O)NCCCCCCCCCCC(=O)O)NC(=O)[C@H](CCCCN)NC(=O)[C@H](C(C)C)NC(=O)[C@H](CC3CCCCC3)NC(=O)[C@H](CCN)NC(=O)[C@@H](CC(C)C)NC(=O)[C@H](CCCN)NC(=O)[C@H](C(C)C)NC(=O)[C@H](Cc3ccc(-c4ccccc4)cc3)NC(=O)[C@H](C(C)C)NC2=O)c1 (stereo partly drawn) [Compound 3340] ({CH2CO}-[Thr(3ξ)]Y(Carboxymethyl)D[Phe(3-Me)]V[Bip]V[Orn][dL][Dab][Cha]VKC[NMeN][Aun]-OH; thioether N-14) | 8.7
7 | Cc1cccc(C[C@@H]2NC(=O)[C@H](CC(=O)O)NC(=O)[C@H](Cc3ccc(OCC(=O)O)cc3)NC(=O)[C@H](CCCNC(=N)N)NC(=O)CSC[C@@H](C(=O)N[C@@H](CCN)C(=O)NCCCCCCCCCCC(=O)O)NC(=O)[C@H](CCC(=O)O)NC(=O)[C@H](C(C)C)NC(=O)[C@H](CC3CCCCC3)NC(=O)[C@H](CCN)NC(=O)[C@@H](CC(C)C)NC(=O)[C@H](CCCN)NC(=O)[C@H](Cc3ccc(O)cc3)NC(=O)[C@H](Cc3ccc(-c4ccccc4)cc3)NC(=O)[C@H](CC(C)C)NC2=O)c1 [Compound 3342] ({CH2CO}-RY(Carboxymethyl)D[Phe(3-Me)]L[Bip]Y[Orn][dL][Dab][Cha]VEC[Dab][Aun]-OH; thioether N-14) | 38.3
8 | CC(C)C[C@H]1NC(=O)[C@H](CCCN)NC(=O)[C@H](Cc2ccc(O)cc2)NC(=O)[C@H](Cc2ccc(-c3ccccc3)cc2)NC(=O)[C@H](C(C)C)NC(=O)[C@H](Cc2c[nH]c3ccccc23)NC(=O)[C@H](CC(=O)O)NC(=O)[C@H](Cc2ccc(OCC(=O)O)cc2)NC(=O)[C@H](CCCNC(=N)N)NC(=O)CSC[C@@H](C(=O)N[C@@H](CCN)C(=O)NCCCCCCCCCCC(=O)O)NC(=O)[C@H](Cc2ccc(O)cc2)NC(=O)[C@H](C(C)C)NC(=O)[C@H](CC2CCCCC2)NC(=O)[C@H](CCN)NC1=O [Compound 3343] ({CH2CO}-RY(Carboxymethyl)DWV[Bip]Y[Orn][dL][Dab][Cha]VYC[Dab][Aun]-OH; thioether N-14) | 66.2
9 | CC(C)C[C@H]1NC(=O)[C@H](CCCN)NC(=O)[C@H](C(C)C)NC(=O)[C@H](Cc2ccc(-c3ccccc3)cc2)NC(=O)[C@H](C(C)C)NC(=O)[C@H](Cc2c[nH]c3ccccc23)NC(=O)[C@H](CC(=O)O)NC(=O)[C@H](Cc2ccc(OCC(=O)O)cc2)NC(=O)[C@H](CCCNC(=N)N)NC(=O)CSC[C@@H](C(=O)N[C@@H](CCCN)C(=O)NCCCCCCCCCCC(=O)O)NC(=O)[C@H](C(C)O)NC(=O)[C@H](C(C)C)NC(=O)[C@H](CC2CCCCC2)NC(=O)[C@H](CCN)NC1=O (stereo partly drawn) [Compound 3344] ({CH2CO}-RY(Carboxymethyl)DWV[Bip]V[Orn][dL][Dab][Cha]V[Thr(3ξ)]C[Orn][Aun]-OH; thioether N-14) | 14.6
10 | CC(C)C[C@H]1NC(=O)[C@H](CCCN)NC(=O)[C@H](C(C)C)NC(=O)[C@H](Cc2ccc(-c3ccccc3)cc2)NC(=O)[C@H](C(C)C)NC(=O)[C@H](Cc2c[nH]c3ccccc23)NC(=O)[C@H](CC(=O)O)NC(=O)[C@H](Cc2ccc(OCC(=O)O)cc2)NC(=O)[C@H](CCCNC(=N)N)NC(=O)CSC[C@@H](C(=O)N[C@@H](CCCN)C(=O)NCCCCCCCCCCC(=O)O)NC(=O)[C@H](CCC(=O)O)NC(=O)[C@H](C(C)C)NC(=O)[C@H](CC2CCCCC2)NC(=O)[C@H](CCN)NC1=O [Compound 3345] ({CH2CO}-RY(Carboxymethyl)DWV[Bip]V[Orn][dL][Dab][Cha]VEC[Orn][Aun]-OH; thioether N-14) | 9.1
11 | CC(C)C[C@H]1NC(=O)[C@H](CCCN)NC(=O)[C@H](C(C)C)NC(=O)[C@H](Cc2ccc(-c3ccccc3)cc2)NC(=O)[C@H](C(C)C)NC(=O)[C@H](Cc2c[nH]c3ccccc23)NC(=O)[C@H](CC(=O)O)NC(=O)[C@H](Cc2ccc(OCC(=O)O)cc2)NC(=O)[C@H](CCCNC(=N)N)NC(=O)CSC[C@@H](C(=O)N[C@@H](CCCN)C(=O)NCCCCCCCCCCC(=O)O)NC(=O)[C@H](CCCN)NC(=O)[C@H](C(C)C)NC(=O)[C@H](CC2CCCCC2)NC(=O)[C@H](CCN)NC1=O [Compound 3346] ({CH2CO}-RY(Carboxymethyl)DWV[Bip]V[Orn][dL][Dab][Cha]V[Orn]C[Orn][Aun]-OH; thioether N-14) | 10.9
12 | Cc1cccc(C[C@@H]2NC(=O)[C@H](CC(=O)O)NC(=O)[C@H](Cc3ccc(OCC(=O)O)cc3)NC(=O)[C@H](Cc3ccncc3)NC(=O)CSC[C@@H](C(=O)N[C@@H](CCCN)C(=O)NCCCCCCCCCCC(=O)O)NC(=O)[C@H](CCCN)NC(=O)[C@H](C(C)C)NC(=O)[C@H](CC3CCCCC3)NC(=O)[C@H](CCN)NC(=O)[C@@H](CC(C)C)NC(=O)[C@H](CCCN)NC(=O)[C@H](C(C)C)NC(=O)[C@H](Cc3ccc(-c4ccccc4)cc3)NC(=O)[C@H](C(C)C)NC2=O)c1 [Compound 3348] ({CH2CO}-[4Pal]Y(Carboxymethyl)D[Phe(3-Me)]V[Bip]V[Orn][dL][Dab][Cha]V[Orn]C[Orn][Aun]-OH; thioether N-14) | 12.8
13 | CC(C)C[C@H]1NC(=O)[C@H](CCCN)NC(=O)[C@H](Cc2ccc(O)cc2)NC(=O)[C@H](Cc2ccc(-c3ccccc3)cc2)NC(=O)[C@H](C(C)C)NC(=O)[C@H](Cc2c[nH]c3ccccc23)NC(=O)[C@H](CC(=O)O)NC(=O)[C@H](Cc2ccc(OCC(=O)O)cc2)NC(=O)[C@H](CCCNC(=N)N)NC(=O)CSC[C@@H](C(=O)N[C@@H](CCN)C(=O)NCCCCCCCCCCC(=O)O)NC(=O)[C@H](CCC(=O)O)NC(=O)[C@H](C(C)C)NC(=O)[C@H](CC2CCCCC2)NC(=O)[C@H](CCN)NC1=O [Compound 3349] ({CH2CO}-RY(Carboxymethyl)DWV[Bip]Y[Orn][dL][Dab][Cha]VEC[Dab][Aun]-OH; thioether N-14) | 8.5
14 | Cc1cccc(C[C@@H]2NC(=O)[C@H](CC(=O)O)NC(=O)[C@H](Cc3ccc(OCC(=O)O)cc3)NC(=O)[C@H](Cc3ccco3)NC(=O)CSC[C@@H](C(=O)N(C)[C@H](CC(N)=O)C(=O)NCCCCCCCCCCC(=O)O)NC(=O)[C@H](CCCN)NC(=O)[C@H](C(C)C)NC(=O)[C@H](CC3CCCCC3)NC(=O)[C@H](CCN)NC(=O)[C@@H](CC(C)C)NC(=O)[C@H](CCN)NC(=O)[C@H](C(C)C)NC(=O)[C@H](Cc3ccc(-c4ccccc4)cc3)NC(=O)[C@H](C(C)C)NC2=O)c1 [Compound 3352] ({CH2CO}-[Ala(2-furyl)]Y(Carboxymethyl)D[Phe(3-Me)]V[Bip]V[Dab][dL][Dab][Cha]V[Orn]C[dNMeN][Aun]-OH; thioether N-14) | 26.5
